In patent publication US6136808A, “Taxane derivatives” (Kabushiki Kaisha Yakult Honsha, priority 1997, dated 2000):
≈ marks a conversion by molar mass, not a printed value. Like-named read-outs stand apart in the source and are kept apart here.

What was measured:
[1] = Solubility test in water of taxane derivatives (HPLC); details: for Dissolved amount (Y): purified water + 0.1N hydrochloric acid (1.05 eq.), room temperature, 2 hours, HPLC; for solubility: water; for solubility at 2 h: water + 0.1n hcl
Procedure: I) Measurement of the solubility of the compound (b)
1) Preparation of a calibration curve
(§1) The compound (b) was weighed in an amount of 1.19 mg, to which 1.19 ml of acetonitrile was added so that the compound was dissolved to provide a standard solution. Using a 10 μl portion of the standard solution, the test was conducted by HPLC (operation conditions 1). […] The peak area obtained as an average of three measurements was plotted against the amount (10.0 μg) of the compound (b) per 10 μl, whereby a calibration curve was prepared.
Calibration curve: Y=2.08×10^-5 X [X: peak area, Y: amount (μg) of the compound (b)]
[HPLC operation conditions 1]
Column: Inertsil ODS-2 (5-250), 40 deg.
Mobile phase: 0.01M KH2 PO4 --CH3 CN (3:2)
Detection: Ultraviolet absorption photometer (225 nm), 0.2 aufs.
2) Solubility test of the compound (b)
(§2) The compound (b) was weighed in an amount of 4.0 mg and then suspended in 2.0 ml of purified water. To the resulting suspension, 45 μl (1.05 eq.) of 0.1N hydrochloric acid was added. By ultrasonication, the resulting mixture was formed into a uniform suspension, which was then shaken at room temperature for 2 hours. The thus-obtained mixture was filtered through a membrane filter (0.22 μm), and the filtrate was provided as a test solution. Using the resulting test solution, the test was conducted by HPLC (operation conditions 1). From the area obtained as an average of three measurements, the solubility of the compound (b) was determined.
II) Measurement of the solubility of the compound (j)
as §1, with “(j)” for “(b)”, “0.94” for “1.19”, “The” for “The peak”
Calibration curve: Y=2.02×10^-5 X [X: peak area, Y: amount (μg) of the compound (j)]
2) Solubility test of the compound (j)
as §2, with “(j)” for “(b)”, “4.24” for “4.0”, “46” for “45”

KB cells = experiment: Cancer cell proliferation activities, growth inhibition of KB cells (XTT assay); type: cell-based; details: Homo sapiens, 72 h
Procedure: Cancer Cell Proliferation Activities
As KB cells derived from a human mouth cancer, those purchased from Dainippon Pharmaceutical Co., Ltd. and stored in a lyophilized from at the Research Institute of that company was used. In Dulbecco's modified Eargle's medium containing 10% fetal bovine serum (product of NISSUI PHARMACEUTICAL CO., LTD.), the KB cells were cultured and maintained under the conditions of 5%, CO2 -air and 37° C.
Each compound was used by dissolving it at a concentration of 10 mg/ml in DMSO.
On Day-1, cells which were in a logarithmic growth phase were inoculated at 2,000 cells/100 μl/well on 96-well microtiter plates (Falcon #3072) by using a phenol-red-free culture medium with 10% fetal bovine serum contained therein (Dulbecco's modified Eargle's medium (Sigma)), and were cultured overnight. On Day 0, the compounds each of which had been diluted to 0.03 to 10,000 ng/ml with the same culture medium were added in 100 μl aliquots to the individual wells, and the cells were cultured for 3 days. Three wells were used per each drug concentration. Each plate was provided with three blank wells containing only the culture medium and also with eight wells as a drug-untreated control.
Upon use, XTT (Sigma) was dissolved at a concentration of 1 mg/ml in each culture medium which was free of serum. Phenodin methosulfate (Sigma) dissolved at a concentration of 5 mM in PBS was added to the resulting solution at a volume ratio of 1/200. To each well, the solution so prepared was added in an amount of 50 μl per well. Subsequent to culture for 4 hours, OD was measured at 450 nm by ELISA.
Calculation of 50% Growth Inhibitory Concentration (GI50)
GI50 was calculated by interpolation from a concentration-growth inhibition rate (GIR). GIR was determined in accordance with the following formula: [formula]

[2] = background statement on Taxol; cited from earlier work
[3] = test system: ovarian cancer and breast cancer; details: Ann. int. Med. 111, 273, 1989; cited from earlier work

Row | SMILES | Dissolved amount (Y) [1] [μg/5 μl] | solubility [1] [µg/mL] | solubility at 2 h [1] [µg/mL] | GI50 (KB cells; KB cells, 3 days, XTT, read-out: GI50) [ng/mL] | GI50 (KB cells; KB) [ng/mL] | solubility in water (in words) [2] | efficacy against ovarian cancer and breast cancer [3]
1 | CC(=O)OC12COC1CC(O)C1(C)C(=O)C(OC(=O)N3CCN(C)CC3)C3=C(C)C(OC(=O)C(O)C(NC(=O)c4ccco4)c4ccccc4)CC(O)(C(OC(=O)c4ccccc4)C21)C3(C)C (stereo not drawn) [Compound b, 13-O-[3-(2-Furoylamino)-2-hydroxy-3-phenylpropionyl]-10-O-(4-methylpiperazinocarbonyl)-10-deacetylbaccatin III] | 9.98 | 2000 (≈ 2160 µM) | 2000 | 1.4 (≈ 0.00151 µM) |  |  | 
2 | CCN1CCN(C(=O)OC2C(=O)C3(C)C(O)CC4OCC4(OC(C)=O)C3C(OC(=O)c3ccccc3)C3(O)CC(OC(=O)C(O)C(NC(=O)OC4CCCC4)c4ccccc4)C(C)=C2C3(C)C)CC1 (stereo not drawn) [Compound j, 13-O-(3-Cyclopentyloxycarbonylamino-2-hydroxy-3-phenylpropionyl)-10-O-(4-ethylpiperazinocarbonyl)-10-deacetylbaccatin III] | 9.20 | 1840 (≈ 1920 µM) | 1840 |  | 0.58 (≈ 0.000604 µM) |  | 
3 | CC(=O)O[C@H]1C(=O)[C@@]2(C)[C@H]([C@H](OC(=O)c3ccccc3)[C@]3(O)C[C@H](OC(=O)[C@H](O)[C@@H](NC(=O)c4ccccc4)c4ccccc4)C(C)=C1C3(C)C)[C@]1(OC(C)=O)CO[C@@H]1C[C@@H]2O [Taxol, reference compound] |  | 0.4 (≈ 0.468 µM) |  |  | 1.3 (≈ 0.00152 µM) | sparingly soluble in water | high efficacy against ovarian cancer and breast cancer
